Measurements as given in patent US5902815A, “Use of 5HT-2A serotonin agonists to prevent adverse effects of NMDA receptor hypofunction” (priority 1996, dated 1999).
Entries after “also recorded” stand apart in the source; their conditions may differ. Like-named read-outs stand apart in the source and are kept apart here.

How the values were obtained:
cerebrocortical neurons = details: cited from earlier work
humans = details: cited from earlier work; for psychotomimetic reactions / psychosis in humans: NMDA antagonists
[1] = test system: NMDA antagonist toxic side effects; assay: Safener drugs against NMDA antagonist toxic side effects (earlier findings); format: in vivo; details: Applicants' discovery, no data given
[2] = test system: NMDA receptors in chick embryo retina; assay: Excitotoxicity in chick embryo retina (NMDA with MK-801, LSD or DOI); details: MK-801 500 nM plus NMDA 40 μM, with or without LSD or DOI 500 nM to 100 μM; n=6 per condition
Experimental: Several tests were performed to ensure that when a 5HT-2A agonist is administered together with an NMDA antagonist, the 5HT-2A agonist will not interfere with the activity of the NMDA antagonist drug at NMDA receptors.
These experiments were performed using segments of chick embryo retina. This is a widely used model for studying the production and prevention of excitotoxic phenomena, since it is simple and inexpensive. Chick tissue is used, since it tends to provide a better model of adult mammalian tissue than embryonic or juvenile mammalian tissue. Unlike newborn mammals, which are usually blind at birth, baby chicks can see quite well as soon as they emerge from the shell, and the NMDA receptors in chick retinal tissue are fully mature and functional.
In these tests, NMDA was introduced into the incubation medium in a concentration (40 μM) sufficient to produce a fully developed excitotoxic lesion within 30 min, displaying acute degeneration and necrosis of the majority of neurons in the inner layers of the retina.

[3] = test system: pyramidal neurons in layers III and IV of the posterior cingulate (PC) and retrosplenial (RS) cortices; assay: Neurotoxic reaction to MK-801 in control rats (vacuolated neurons per section); format: in vivo, adult female rats; details: MK-801 0.5 mg/kg sc plus vehicle; ± SEM; n=26
Experimental: (§1) For each test agent, at least 20 rats were used, and at least four dosages were tested.
(§2) The rats were sacrificed four hours after drug administration, and brain tissue from the PC/RS region was histopathologically evaluated by previously described methods using double-blinded techniques (Olney et al 1991). The number of vacuolated PC and RS neurons were counted on each side of the brain at a rostrocaudal level immediately posterior to where the corpus callosum ceases decussating across the midline (approximately 5.6 mm caudal to Bregma; Paxinos & Watson, The Rat Brain in Stereotaxic Coordinates, 2d Ed., 1986).

[4] = test system: vacuolated pyramidal neurons of posterior cingulate and retrosplenial (PC/RS) cortices, MK-801 neurotoxicity; assay: Blocking MK-801 neurotoxicity (vacuolated PC/RS cortical neurons) in rats by serotonergic agents; format: in vivo, adult female rats; details: rats; 5HT-2A/2C agonists, ip
Experimental: Each test rat also received a 5HT-2A/2C agonist drug (LSD, DOB, DOI, or DOM), while control rats received an inert carrier liquid as a placebo. After 4 hours, the rats were sacrificed, and brain tissue from specific regions which are susceptible to NR/hypo damage (layers III and IV of the posterior cingulate (PC) and retrosplenial (RS) cortices) were examined for vacuoles in the neurons, which are an indicator of toxic neuronal injury induced by NMDA receptor hypofunction.
DOI was purchased from Research Biochemicals International (Natick, Mass.).
as §1, §2
This drug is widely used in Europe, and is a 5HT-2A agonist but a 5HT-2C antagonist.
It is described in Nozulak et al 1993.

5HT-2A/2C receptor = assay: 5HT-2A/2C antagonist block of agonist protection against MK-801 neurotoxicity; format: in vivo, adult female rats
From the text: The following example confirms that the neuroprotective effects provided by 5HT-2A/2C agonists are mediated through either the 5HT-2A or 5HT-2C receptor (or both), rather than through cross-reactivity at some other receptor or through some other mechanism. This was done by showing that these neuroprotective effects are blocked by selective 5HT-2A/2C antagonists.
Ritanserin is an antagonist drug that selectively blocks activation of 5HT-2A/2C receptors.
The brains were processed and the severity of damage was assessed as described in Example 1. Results were analyzed by analysis of covariance (ANCOVA) where the dose of DOI was the covariate and the presence of ritanserin served as the classification (treatment) variable. The homogeneity of slopes assumption was tested by determining whether there was a significant interaction between the covariate and the treatment variable.

schizophrenia = details: cited from earlier work
craving for cocaine = details: Sershen 1994; cited from earlier work
5HT-2C = details: cited from earlier work
5HT-3 = details: cited from earlier work
5HT-6 = details: cited from earlier work
[5] = test system: NR/hypo-induced vacuoles in PC/RS cortical neurons (MK-801); assay: Anti-psychotic drugs and sigma blockers: protection against NR/hypo-induced vacuoles; format: in vivo, rats; details: Rattus norvegicus, Cortical neurone, ip, read-out: ED50 in protecting against NR/hypo-induced vacuoles
Experimental: Several of the antipsychotic agents tested (haloperidol, thioridazine and loxapine) are known to interact with both dopamine receptors and sigma receptors.
Control animals received saline or DMSO, but no anti-psychotic drugs. Test animals were injected ip with an antipsychotic drug, listed above and in Table 2. Vacuoles were counted and data were processed as described in Example 1.

5HT-7 = details: cited from earlier work
[6] = Olney et al 1989, Corso et al 1994, adult rat

CNC1(c2ccccc2Cl)CCCCC1=O (stereo not shown) [Ketamine]
pathomorphological changes in brain (cerebrocortical neurons; rat, in vivo): cause pathomorphological changes in the cerebral cortex of adult rats | psychotomimetic reactions / psychosis in humans (humans): produces symptoms in normal humans that are indistinguishable from the symptoms of psychosis and thought disorder seen in schizophrenia | duration of action (humans; anesthetic, intravenous): about 15 minutes

CCNC1(c2cccs2)CCCCC1=O (stereo not shown) [Tiletamine]
pathomorphological changes in brain (cerebrocortical neurons; [6]): cause pathomorphological changes in the cerebral cortex of adult rats

c1ccc(C2(N3CCCCC3)CCCCC2)cc1 [Phencyclidine]
pathomorphological changes in brain (cerebrocortical neurons; [6]): produce pathomorphological changes in various corticolimbic regions of the adult rat brain | psychotomimetic reactions / psychosis in humans (humans): can induce a psychosis which is clinically indistinguishable from schizophrenia

C=CCC1(C(C)CCC)C(=O)NC(=O)NC1=O (stereo not shown) [secobarbitol]
prevention of NMDA antagonist toxic side effects [1]: prevent NMDA antagonists from causing toxic side effects

C[C@]12N[C@H](Cc3ccccc31)c1ccccc12 [MK-801, (+)-5-methyl-10,11-dihydro-5H-di[a,d]cyclohepten-5,10-imine]
protection against NMDA excitotoxic damage [2]: completely protected against excitotoxic damage; also recorded: showed no cytopathology | mean number of vacuolated neurons per section [3]: 223±10.5

CCN(CC)C(=O)N[C@H]1C=C2c3cccc4[nH]cc(c34)C[C@H]2N(C)C1 [Lisuride]
prevention of the neurotoxic action of MK-801 / vacuole formation [4]: can prevent vacuole formation caused by MK-801 | hallucinations (humans; in vivo): does not cause hallucinations

Cc1nc2sccn2c(=O)c1CCN1CCC(=C(c2ccc(F)cc2)c2ccc(F)cc2)CC1 [ritanserin]
effect of antagonist on DOI's protection (5HT-2A/2C receptor; ritanserin 0.03 mg/kg ip plus various doses of DOI, F(1,84)=23.36, p<0.0005): competitively blocks DOI's protective effects against the toxic side effects of MK-801; also recorded: significantly interfered with DOI's protection | shift of the DOI blocking curve by ritanserin (5HT-2A/2C receptor; ritanserin 0.03 mg/kg ip, FIG. 3): shifted the blocking curve to the right | effect on positive symptoms of schizophrenia (schizophrenia; hallucinations, delusions): did not help relieve "positive" symptoms | effect on symptoms of schizophrenia (schizophrenia; schizophrenic patients): only helped relieve certain "negative" symptoms of schizophrenia | effect on exacerbation of schizophrenia by mCPP (schizophrenia; schizophrenic patients, mCPP): can be blocked

CC[C@H]1C[C@H]2C[C@H]3c4[nH]c5ccc(OC)cc5c4CCN(C2)[C@@H]13 [ibogaine]
suppression of craving for cocaine (craving for cocaine): can suppress the craving for cocaine

CN1CCN(C2=Nc3cc(Cl)ccc3Nc3ccccc32)CC1 [Clozapine]
affinity for 5HT-2C (5HT-2C): high affinity | affinity for 5HT-3 (5HT-3): high affinity | affinity for 5HT-6 (5HT-6): high affinity | ED50 [5]: 3.2 mg/kg | affinity for 5HT-7 (5HT-7): high affinity
